From ChEMBL document CHEMBL3351420, “Liver X receptor (LXR) partial agonists: biaryl pyrazoles and imidazoles displaying a preference for LXRβ” (Bioorg Med Chem Lett, 2015)
Activity calls are given as the source filed them. The rule behind the calls is not given here.

How the values were obtained:
[1] = target: Retinoic acid receptor RXR-alpha/oxysterols receptor LXR-alpha (Homo sapiens, UniProt Q13133); assay: Binding affinity to LXRalpha-RXRalpha heterodimer (unknown origin) expressed in insect cells by scintillation proximity assay
[2] = target: Retinoic acid receptor RXR-alpha/oxysterols receptor LXR-beta (Homo sapiens, UniProt P55055); assay: Binding affinity to LXRbeta-RXRalpha heterodimer (unknown origin) expressed in insect cells by scintillation proximity assay
[3] = target: T1, Oxysterols receptor LXR-alpha (Homo sapiens, UniProt Q13133); assay: Transactivation of LXRalpha (unknown origin) expressed in CV1 cells by luciferase reporter gene assay; type: cell-based, CV-1
T1 sequence (Q13133 whole entry): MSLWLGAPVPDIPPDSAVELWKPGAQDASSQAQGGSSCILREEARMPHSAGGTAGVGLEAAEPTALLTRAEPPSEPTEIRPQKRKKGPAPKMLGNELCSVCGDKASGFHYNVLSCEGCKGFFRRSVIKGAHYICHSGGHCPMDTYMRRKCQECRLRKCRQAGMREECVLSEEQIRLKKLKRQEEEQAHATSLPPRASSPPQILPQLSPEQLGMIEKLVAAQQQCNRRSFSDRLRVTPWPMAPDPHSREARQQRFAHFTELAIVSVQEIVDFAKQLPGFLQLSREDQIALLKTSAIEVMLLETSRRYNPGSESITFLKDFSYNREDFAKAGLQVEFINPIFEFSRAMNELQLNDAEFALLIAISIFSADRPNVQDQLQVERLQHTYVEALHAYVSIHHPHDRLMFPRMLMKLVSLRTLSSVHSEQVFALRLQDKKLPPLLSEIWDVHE

[4] = target: T2, Oxysterols receptor LXR-beta (Homo sapiens, UniProt P55055); assay: Transactivation of LXRbeta (unknown origin) expressed in CV1 cells by luciferase reporter gene assay; type: cell-based, CV-1
T2 sequence (P55055 whole entry): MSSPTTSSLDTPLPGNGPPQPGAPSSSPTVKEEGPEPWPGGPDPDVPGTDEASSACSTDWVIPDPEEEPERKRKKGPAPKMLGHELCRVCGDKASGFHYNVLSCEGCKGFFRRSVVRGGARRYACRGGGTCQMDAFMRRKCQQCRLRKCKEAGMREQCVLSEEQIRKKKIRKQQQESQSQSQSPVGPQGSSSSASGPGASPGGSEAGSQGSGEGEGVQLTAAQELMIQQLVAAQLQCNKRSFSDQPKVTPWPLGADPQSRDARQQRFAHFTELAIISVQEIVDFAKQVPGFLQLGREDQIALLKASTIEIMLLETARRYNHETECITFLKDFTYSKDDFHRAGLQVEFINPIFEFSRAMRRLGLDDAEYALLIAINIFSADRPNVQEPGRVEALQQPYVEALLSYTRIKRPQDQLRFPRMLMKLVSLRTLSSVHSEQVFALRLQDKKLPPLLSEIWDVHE

Liver X receptor [5] = target: T3, Liver X receptor (Homo sapiens, UniProt Q13133+P55055); assay: Transactivation of LXR (unknown origin) expressed in human HeLa cells by ABCA1 LXREx3 reporter assay; type: cell-based
T3 sequence (Q13133 whole entry): T1 sequence (Q13133 whole entry)
T3 sequence (P55055 whole entry): T2 sequence (P55055 whole entry)

[6] = Plasma concentration in mouse at 30 mg/kg, po measured at 4 hrs post dose; type: ADME, organism-based; parameters: dose 30 mg/kg, route oral
[7] = Plasma concentration in mouse at 30 mg/kg, po measured at 24 hrs post dose; type: ADME, organism-based; parameters: dose 30 mg/kg, route oral
[8] = Drug uptake in mouse liver at 30 mg/kg, po measured at 24 hrs post dose; type: ADME, organism-based; parameters: dose 30 mg/kg, route oral; details: read-out: Drug uptake
Liver X receptor [9] = target: T3, Liver X receptor; assay: Transactivation of LXR in human whole blood assessed as induction of ABCA1 after 4 hrs by SYBR-Green quantitative PCR analysis
Mus musculus [10] = assay: Induction of ABCA1 mRNA induction in C57BL/6 mouse blood cells at 3 to 30 mg/kg for 7 days measured 5 hrs post last dose relative to control; type: functional, organism-based
Mus musculus [11] = assay: Induction of ABCG1 mRNA induction in C57BL/6 mouse blood cells at 3 to 30 mg/kg for 7 days measured 5 hrs post last dose relative to control; type: functional, organism-based
Mus musculus [12] = assay: Elevation of plasma triglyceride in C57BL/6 mouse at 3 to 10 mg/kg for 7 days measured 24 hrs post last dose relative to control; type: ADME, organism-based; parameters: dose 3-10 mg/kg; details: in vivo
Mus musculus [13] = assay: Elevation of hepatic triglyceride in C57BL/6 mouse at 3 to 30 mg/kg for 7 days measured 24 hrs post last dose relative to control; type: ADME, organism-based; parameters: dose 3-30 mg/kg; details: in vivo
Mus musculus [14] = assay: Elevation of plasma triglyceride in C57BL/6 mouse at 30 mg/kg for 7 days measured 24 hrs post last dose relative to control; type: ADME, organism-based; parameters: dose 30 mg/kg; details: in vivo
Mus musculus [15] = assay: Elevation of hepatic triglyceride in C57BL/6 mouse at 30 mg/kg for 7 days measured 24 hrs post last dose relative to control; type: ADME, organism-based; parameters: dose 30 mg/kg; details: in vivo
Mus musculus [16] = assay: Induction of SREBP1c mRNA in C57BL/6 mouse liver at 10 mg/kg for 7 days measured 24 hrs post last dose relative to control; type: organism-based; parameters: dose 10 mg/kg; details: C57BL/6, 24 h, read-out: FC
Mus musculus [17] = assay: Induction of SREBP1c mRNA in C57BL/6 mouse liver at 30 mg/kg for 7 days measured 24 hrs post last dose relative to control; type: organism-based; parameters: dose 30 mg/kg; details: C57BL/6, 24 h, read-out: FC
[18] = Plasma concentration in C57BL/6 mouse at 3 mg/kg, po measured at 5 hrs post dose; type: ADME, organism-based; parameters: dose 3 mg/kg, route oral
[19] = Plasma concentration in C57BL/6 mouse at 10 mg/kg, po measured at 5 hrs post dose; type: ADME, organism-based; parameters: dose 10 mg/kg, route oral
[20] = Plasma concentration in C57BL/6 mouse at 30 mg/kg, po measured at 5 hrs post dose; type: ADME, organism-based; parameters: dose 30 mg/kg, route oral
[21] = target: Liver X receptor (Homo sapiens) (UniProt Q13133+P55055); assay: Transactivation of LXR in human whole blood assessed as induction of ABCA1 after 4 hrs by SYBR-Green quantitative PCR analysis relative to 1-(2,4-difluorobenzyl)-2-oxo-6-(4-phenoxyphenyl)-4-(trifluoromethyl)-1,2-dihydropyridine-3-carbonitrile

Sequence of Retinoic acid receptor RXR-alpha/oxysterols receptor LXR-beta (P19793 whole entry, one chain of several): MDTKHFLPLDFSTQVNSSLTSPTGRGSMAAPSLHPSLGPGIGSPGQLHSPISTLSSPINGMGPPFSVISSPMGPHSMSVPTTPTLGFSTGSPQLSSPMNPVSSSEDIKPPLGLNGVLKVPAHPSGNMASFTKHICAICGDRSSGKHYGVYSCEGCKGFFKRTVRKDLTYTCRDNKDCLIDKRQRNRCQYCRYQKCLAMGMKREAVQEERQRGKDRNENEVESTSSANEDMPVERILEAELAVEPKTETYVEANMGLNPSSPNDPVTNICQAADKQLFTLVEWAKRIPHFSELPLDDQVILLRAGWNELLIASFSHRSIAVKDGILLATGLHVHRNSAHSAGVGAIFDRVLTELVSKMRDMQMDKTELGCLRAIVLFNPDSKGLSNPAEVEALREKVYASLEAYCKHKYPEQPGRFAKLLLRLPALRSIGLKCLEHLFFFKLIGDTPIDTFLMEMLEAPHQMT
Sequence of Retinoic acid receptor RXR-alpha/oxysterols receptor LXR-alpha (P19793 whole entry, one chain of several): as above

| Compound | Ki [1] [nM] | Ki [2] [nM] | EC50 [3] [nM] | EC50 [4] [nM] | EC50 (Liver X receptor [5]) [nM] | concentration at 4 h [6] [nM] | concentration at 24 h [7] [nM] | concentration at 24 h [8] [nM] | EC50 (Liver X receptor [9]) [nM] | Efficacy [21] [%] | other results |
| --- | --- | --- | --- | --- | --- | --- | --- | --- | --- | --- | --- |
| CS(=O)(=O)c1cccc(-c2ccc(-c3cc(C(F)(F)F)nn3-c3ccccc3C(F)(F)F)s2)c1 | 240 | 16 | 120 | 68 | 8 | 6900 | 4100 | – | – | – | – |
| CS(=O)(=O)c1cccc(-c2cccc(-c3cc(C(F)(F)F)nn3-c3ccccc3Cl)c2)c1 | 300 | 31 | 320 | 230 | 38 | 6600 | 300 | 1000 | – | – | – |
| CC(C)(O)c1cn(-c2ccc(-c3cccc(S(C)(=O)=O)c3)cc2)c(C(C)(C)c2ccccc2Cl)n1 [BMS-779788] | 68 | 14 | 230 | 250 | 33 | 5400 | 40 | < 50 | 1200 | 55 | Activity (Mus musculus [10]): Active; Activity (Mus musculus [11]): Active; Activity (Mus musculus [12]): Non-toxic; Activity (Mus musculus [13]): Non-toxic; Activity (Mus musculus [14]): 74%; Activity (Mus musculus [15]): Non-toxic; fold induction at 10 mg/kg (Mus musculus [16]): 2.7; fold induction at 30 mg/kg (Mus musculus [17]): 3.5; concentration at 5 h [18]: 50 nM; concentration at 5 h [19]: 200 nM; concentration at 5 h [20]: 2000 nM |
| CS(=O)(=O)c1cccc(-c2ccc(-c3cc(C(F)(F)F)nn3Cc3ccc(F)cc3F)s2)c1 | 20 | 7 | 18 | 14 | – | – | – | – | – | – | – |
| CC(C)(O)c1cn(-c2ccc(-c3cccc(S(C)(=O)=O)c3)cc2)c(-c2c(Cl)cccc2Cl)n1 | 2500 | 54 | > 10000 | 670 | 140 | 18500 | 600 | 4400 | 7000 | 38 | – |
| N#Cc1c(C(F)(F)F)cc(-c2ccc(Oc3ccccc3)cc2)n(Cc2ccc(F)cc2F)c1=O | 26 | 9 | 20 | 20 | 7 | – | – | – | – | – | – |
| CC(C)(O)c1cn(-c2ccc(-c3cccc(S(C)(=O)=O)c3)cc2)c(Cc2ccccc2C(F)(F)F)n1 | 66 | 7 | 200 | 140 | 27 | 6000 | 20 | 200 | 3100 | 30 | – |
| CS(=O)(=O)c1cccc(-c2ccc(-c3cc(C(F)(F)F)c(C#N)c(=O)n3Cc3ccc(F)cc3F)s2)c1 | 11 | 11 | 4 | 2 | – | – | – | – | – | – | – |
| CC(C)(O)c1cc(-c2ccc(-c3cccc(S(C)(=O)=O)c3)s2)n(-c2ccccc2Cl)n1 | 1500 | 83 | 540 | 620 | 800 | – | – | – | – | – | – |
| CC(C)(O)c1cn(-c2ccc(-c3cccc(S(C)(=O)=O)c3)cc2)c(-c2ccccc2Cl)n1 | 1600 | 59 | > 10000 | 600 | 140 | 14000 | 2000 | 13200 | 8300 | 31 | – |
| CS(=O)(=O)c1cccc(-c2ccc(-c3cc(C(F)(F)F)nn3-c3ccccc3Cl)cc2)c1 | 180 | 13 | 220 | 49 | 13 | 600 | 400 | 7800 | 480 | 49 | – |
| CS(=O)(=O)c1cccc(-c2ccc(-n3cc(C(F)(F)F)nc3-c3ccccc3Cl)cc2)c1 | 61 | 11 | 52 | 61 | 5 | 1200 | 2300 | 32000 | – | – | – |
| Cc1cc(CC(=O)O)ccc1-c1ccc(-c2cc(C(F)(F)F)c(C#N)c(=O)n2Cc2ccc(F)cc2F)s1 | 36 | 9 | 570 | 320 | 40 | – | – | – | – | – | fold change (FC) (Mus musculus [15]): 4.8; fold induction at 30 mg/kg (Mus musculus [17]): 7.7 |
| CC(C)(O)c1cn(-c2ccc(-c3cccc(S(C)(=O)=O)c3)cc2)c(Cc2ccccc2Cl)n1 | 25 | 1 | 85 | 66 | 12 | 1300 | 400 | 1500 | 3200 | 62 | – |
| COC(=O)c1cc(-c2ccc(-c3cccc(S(C)(=O)=O)c3)s2)n(-c2ccccc2Cl)n1 | 150 | 10 | 65 | 64 | 310 | – | – | – | – | – | – |
| CS(=O)(=O)c1cccc(-c2ccc(-c3cc(C(F)(F)F)nn3-c3ccccc3Cl)s2)c1 | 68 | 12 | 140 | 110 | 9 | – | – | – | – | – | – |
